Legend:
[1] = molecular target: T1, Prostacyclin receptors (IP receptors) of human thrombocyte membranes (Homo sapiens, UniProt P43119); assay: Binding to prostacyclin receptors (IP receptors) of human thrombocyte membranes, 3H-Iloprost displacement; conditions: 3 nM 3H-Iloprost, 60 min, room temperature
T1 construct: Thrombocyte membranes are obtained by centrifuging 50 ml of human blood
Procedure: B-1. Studies of Binding to Prostacyclin Receptors (IP Receptors) of Human Thrombocyte Membranes
Thrombocyte membranes are obtained by centrifuging 50 ml of human blood (Buffy coats with CDP Stabilizer, from Maco Pharma, Langen) for 20 min at 160×g. Remove the supernatant (platelet-rich plasma, PRP) and then centrifuge again at 2000×g for 10 min at room temperature. Resuspend the sediment in 50 mM tris(hydroxymethyl)aminomethane, which has been adjusted to a pH of 7.4 with 1 N hydrochloric acid, and store at −20° C. overnight. On the next day, centrifuge the suspension at 80 000×g and 4° C. for 30 min. Discard the supernatant. Resuspend the sediment in 50 mM tris(hydroxymethyl)aminomethane/hydrochloric acid, 0.25 mM ethylene diamine tetraacetic acid (EDTA), pH 7.4, and then centrifuge once again at 80 000×g and 4° C. for 30 min. Take up the membrane sediment in binding buffer (50 mM tris(hydroxymethyl)-aminomethane/hydrochloric acid, 5 mM magnesium chloride, pH 7.4) and store at −70° C. until the binding test.
For the binding test, incubate 3 nM ^3H-Iloprost (592 GBq/mmol, from AmershamBioscience) for 60 min with 300-1000 μg/ml of human thrombocyte membranes per charge (max. 0.2 ml) in the presence of the test substances at room temperature. After stopping, add cold binding buffer to the membranes and wash with 0.1% bovine serum albumin. After adding Ultima Gold Scintillator, quantify the radioactivity bound to the membranes using a scintillation counter. The nonspecific binding is defined as radioactivity in the presence of 1 μM Iloprost (from Cayman Chemical, Ann Arbor) and is as a rule <25% of the bound total radioactivity. The binding data (IC50 values) are determined using the program GraphPad Prism Version 3.02.

[2] = non-enzymatic transformation to inactive metabolite 6-keto-prostaglandin-F1alpha; cited from earlier work

T1 sequence (P43119 whole entry): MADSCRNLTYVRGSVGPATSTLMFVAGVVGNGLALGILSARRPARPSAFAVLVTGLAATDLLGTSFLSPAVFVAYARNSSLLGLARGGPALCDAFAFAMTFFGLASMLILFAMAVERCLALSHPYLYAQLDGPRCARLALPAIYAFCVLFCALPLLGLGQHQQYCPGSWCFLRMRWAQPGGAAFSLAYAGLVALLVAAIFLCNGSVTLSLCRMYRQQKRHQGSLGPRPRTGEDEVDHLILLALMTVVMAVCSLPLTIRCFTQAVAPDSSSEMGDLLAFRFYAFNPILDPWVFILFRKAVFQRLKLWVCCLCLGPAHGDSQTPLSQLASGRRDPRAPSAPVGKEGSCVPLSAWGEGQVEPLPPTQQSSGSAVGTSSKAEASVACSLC

SMILES	IC50 [1]	half-life [2]
COc1ccc(-c2c(-c3ccccc3)[nH]c3ncnc(O[C@H](C)CCCCC(=O)O)c23)cc1 [Example 5, (6R)-6-{[5-(4-Methoxyphenyl)-6-phenyl-7H-pyrrolo[2,3-d]pyrimidin-4-yl]oxy}heptanoic acid]	39 nM	–
CCc1ccc(-c2c(-c3ccccc3)sc3ncnc(O[C@H](C)CCCCC(=O)O)c23)cc1 [Example 9, (6R)-6-{[5-(4-ethylphenyl)-6-phenylthieno[2,3-d]pyrimidin-4-yl]oxy}heptanoic acid]	208 nM	–
COc1ccc(-c2c(-c3ccccc3)oc3cccc(OCCCCCC(=O)O)c23)cc1 [Example 12, 6-{[3-(4-Methoxyphenyl)-2-phenyl-1-benzofuran-4-yl]oxy}hexanoic acid]	984 nM	–
COc1ccc(-c2c(-c3ccccc3)oc3ccnc(NCC(C)(C)COCC(=O)O)c23)cc1 [Example 19, (3-{[3-(4-Methoxyphenyl)-2-phenylfuro[3,2-c]pyridin-4-yl]amino}-2,2-dimethylpropoxy)acetic acid]	98 nM	–
CCc1ccc(-c2c(-c3ccccc3)oc3nccc(NCC(C)(C)COCCC(=O)O)c23)cc1 [Example 21, 3-(3-{[3-(4-Ethylphenyl)-2-phenylfuro[2,3-b]pyridin-4-yl]amino}-2,2-dimethylpropoxy)-propanoic acid]	35 nM	–
CCc1ccc(-c2c(-c3ccccc3)oc3nccc(O[C@H](C)CCCCC(=O)O)c23)cc1 [Example 28, (6R)-6-{[3-(4-ethylphenyl)-2-phenylfuro[2,3-b]pyridin-4-yl]oxy}heptanoic acid]	39 nM	–
CCc1ccc(-c2c(-c3ccccc3)oc3nccc(OCCOCCC(=O)O)c23)cc1 [Example 29]	1700 nM	–
CCCCC[C@H](O)/C=C/[C@@H]1[C@H]2C/C(=C/CCCC(=O)O)O[C@H]2C[C@H]1O [PGI2]	–	approx. 3 minutes
